Columns and labels:
[1] = test system: UNC93B/TLR interaction in A20 B cells; assay: Coimmunoprecipitation of TLRs with UNC93B-HA after stimulation with TLR agonists; assay type: cell-based, mouse; conditions: imiquimod 10 μM, gardiquimod 1 μM, CpG DNA 1 μM, 1 h
Experimental: Stimulation with TLR agonists. A20 B cells either not transduced or stably transduced with UNC93B-HA WT or H412R were metabolically labeled with ^35S-methionine/cysteine for 4 h (pulse). TLR agonists were added to the cells for the final hour of the pulse at the following concentrations: imiquimod: 10 μM, gardiquimod: 1 μM, CpG DNA: 1 μM.
Pulse-chase, immunoprecipitation and Endo H/F assay. In brief, cells were starved for methionine and cysteine in Met/Cys-free DMEM (starvation medium) for 30 min, pulsed for different time periods (see figure legends) with ^35S-labeled methionine/cysteine (Perkin Elmer) in starvation medium supplemented with dialyzed IFS, and chased with an excess of non-radioactive amino acids in regular DMEM for various time periods (see figure legends). Cells were lysed in either of the following lysis buffers supplemented with the complete protease inhibitors (Roche) as indicated in the figure legends: RIPA (20 mM Tris-HCl, pH 7.4, 1 mM EDTA, 100 mM NaCl, 1% Triton X-100, 0.5% sodium deoxycholate, 0.1% SDS), or buffer containing 50 mM Tris-HCl, pH 7.4, 150 mM NaCl, 5 mM EDTA with either 1% NP-40 or 1% digitonin as detergent. Lysates were equalized for incorporation of radioactive material with ^35S counts in the trichloroacetic acid precipitate and immunoprecipitated with the indicated antibodies. […]

TLR signaling = conditions: pretreatment of wild type cells; cited from earlier work
[2] = test system: RAW macrophages stably expressing wild type UNC93B-HA; assay: Endo H sensitivity of UNC93B-HA and Class I MHC in RAW macrophages; assay type: cell-based, mouse; conditions: Brefeldin A 10 μg/ml, present throughout pulse, chase and CpG stimulation
Experimental: FIG. 14. The interaction between UNC93B and TLRs maintains in dendritic cells stimulated with TLR agonists. (a) BM-DCs were metabolically labeled with ^35S-methionine/cysteine and stimulated with TLR ligands for 1 h (LPS: 1 μg/ml, poly (I:C): 50 μg/ml, Imiquimod: 2.5 CpG DNA: 2.5 μM). Endogenous UNC93B and TLRs were immunoprecipitated with an anti-UNC93B antibody, digested with endoglycosidase H (Endo H), subjected to 10% SDS-PAGE and visualized by fluorography. TLRs coimmunoprecipitated with UNC93B are denoted by open triangles. Interaction between TLRs and UNC93B was maintained even after TLR stimulation with various agonists. […] NRS; normal rabbit serum (b) RAW macrophages stably expressing wild type UNC93B-HA were exposed to Brefeldin A (10 μg/ml) for 2 h, metabolically labeled with ^35S-methionine/cysteine for 30 min (pulse), incubated in normal medium for 2 h (chase) followed by 2 h stimulation with CpG (+CpG) or were left unstimulated (−CpG). All incubations (pulse, chase, CpG stimulation) were done in the continuous presence of Brefeldin A. As a control, cells were not treated with Brefeldin A (−BA). Cells were lysed in RIPA buffer and UNC93B-HA and Class I MHC products were recovered from cell lysates by immunoprecipitation with an anti-HA (upper panel) or Class I antibody (lower panel), respectively. […]

BM-DCs [3] = assay: Surface MHC class II level on BM-DCs by flow cytometry; assay type: cell-based, mouse; conditions: B6 or 3d BM-DCs; 1 μg/ml LPS, 1 μM CpG or 1 μM imiquimod, 16 h
Experimental: (b) BM-DCs from B6 and 3d mice were fixed, permeablized and stained for MHC class II (green) and Lamp1 (red). […] White dashed lines mark the cell boundary. […] (d) B6 or 3d BM-DCs were stimulated with 1 μg/ml LPS or 1 μM CpG for 16 h, fixed, permeabilized and stained for MHC class II and Lamp1. […] Scale bars; 10 μm

TLR7 = molecular target: T1, TLR7 (Mus musculus, UniProt P58681); assay: Live cell imaging of TLR7-YFP localization in BM-DCs; assay type: cell-based; conditions: wild type (B6) BM-DCs, 1 μM imiquimod, 2 h
T1 construct: expressed in transfected cells; host or cells: bone marrow-derived dendritic cells from B6 or 3d mice, retroviral transduction (pMXrmv5-TLR7-YFP)
T1 sequence (P58681 27-1050): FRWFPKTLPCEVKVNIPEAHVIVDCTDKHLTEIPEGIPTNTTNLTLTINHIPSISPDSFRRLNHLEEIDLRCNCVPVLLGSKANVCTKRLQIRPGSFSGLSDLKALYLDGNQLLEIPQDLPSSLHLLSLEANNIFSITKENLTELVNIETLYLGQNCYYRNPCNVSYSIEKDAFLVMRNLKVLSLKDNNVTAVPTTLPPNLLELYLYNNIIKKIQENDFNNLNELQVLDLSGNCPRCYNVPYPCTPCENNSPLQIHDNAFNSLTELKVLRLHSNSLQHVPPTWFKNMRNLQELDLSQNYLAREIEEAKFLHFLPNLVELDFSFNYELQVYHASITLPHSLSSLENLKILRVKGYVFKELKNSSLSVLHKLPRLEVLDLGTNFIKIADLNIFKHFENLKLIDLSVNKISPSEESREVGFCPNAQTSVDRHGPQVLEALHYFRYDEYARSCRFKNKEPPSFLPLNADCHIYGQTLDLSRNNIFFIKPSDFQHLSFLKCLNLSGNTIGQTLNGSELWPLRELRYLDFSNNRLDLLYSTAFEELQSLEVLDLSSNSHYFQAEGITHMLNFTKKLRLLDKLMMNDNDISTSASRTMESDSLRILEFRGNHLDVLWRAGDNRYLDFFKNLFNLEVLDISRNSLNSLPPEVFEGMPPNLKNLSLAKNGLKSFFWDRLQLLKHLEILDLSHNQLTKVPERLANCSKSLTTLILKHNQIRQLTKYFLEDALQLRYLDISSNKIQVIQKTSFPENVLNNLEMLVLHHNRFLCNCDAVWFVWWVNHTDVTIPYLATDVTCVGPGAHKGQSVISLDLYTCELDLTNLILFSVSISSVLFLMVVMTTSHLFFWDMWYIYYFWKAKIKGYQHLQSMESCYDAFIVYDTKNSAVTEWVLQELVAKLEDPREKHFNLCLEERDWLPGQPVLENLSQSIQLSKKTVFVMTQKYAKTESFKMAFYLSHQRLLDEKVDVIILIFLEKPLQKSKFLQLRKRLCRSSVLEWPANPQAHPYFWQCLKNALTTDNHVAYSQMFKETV
Experimental: Image acquisition and data analysis. For live cell imaging, cells were grown in 8 well-chambered coverglasses (LAB-TEK). During imaging, cells were maintained in phenol red-free DMEM supplemented with 25 mM Hepes (pH 7.4) at 37° C. with 5% supplemental CO2 in room air using a Solent scientific chamber. Images were acquired using a spinning disk confocal microscope equipped with a 3 watt water-cooled 5 line laser (Prairie Technologies), a Nikon TE2000-U inverted microscope, acousto-optic tunable filters (AOTF), a Yokagawa QLC-100 spinning disk confocal head, a Prior x,y stage controller, a Piezo z stage and Hamamatsu Orca ER and EM CCD cameras. All images were taken with a Nikon 100X 1.4NA DIC lens. Metamorph (Molecular Devices) was used for image acquisition and figures were constructed using Adobe Photoshop and Illustrator. Quantitative colocalization analyses were performed using applications ‘Measure Colocalization’ and ‘Correlation Plot’ in the MetaMorph software (Molecular Devices).

BM-DCs [4] = assay: TNF production in BM-DCs stimulated with TLR agonists (intracellular TNF, flow cytometry); assay type: cell-based, mouse; conditions: BM-DCs from 3d (UNC93B H412R) mice; 100 nM imiquimod or 1 μM CpG, 4 h, with 10 μg/ml brefeldin A
Experimental: TNF assay. Five days old BM-DCs expressing either wild type or mutant UNC93B-GFP were stimulated with 1 μg/ml LPS, 100 nM imiquimod or 1 μM CpG for 4 hours in the presence of 10 μg/ml brefeldin A. The cells were fixed with 4% formaldehyde for 10 min at RT and permeabilized with 0.5% saponin in FACS buffer (PBS with 2% BSA and 0.05% sodium azide) for 10 min. After blocking with anti-CD16 antibody (clone 2.4G2) for 30 min, cells were stained with PE-conjugated anti-CD11c (clone HL3) and Alexa Fluor 647-conjugated anti-TNF (clone MP6-XT22) antibodies for 30 min. Fluorescence intensity was measured with LSR I flow cytometer (BD biosciences). Data were collected with CellQuest (BD biosciences) and analyzed with FlowJo (TriStar).

SMILES: CCNCc1nc2c(N)nc3ccccc3c2n1CC(C)(C)O [gardiquimod]
- levels of coimmunoprecipitated TLR polypeptides after TLR activation versus unstimulated cells [1]: No significant changes

SMILES: CCN(CC)CCCC(C)Nc1ccnc2cc(Cl)ccc12 (centres unmarked) [chloroquine]
- effect on TLR signaling compared with the defects of 3d cells (TLR signaling): mimicked

SMILES: C[C@H]1CCC/C=C/[C@@H]2C[C@H](O)C[C@H]2[C@H](O)/C=C/C(=O)O1 [Brefeldin A]
- Endo H resistance of Class I MHC and UNC93B [2]: both Class I MHC and UNC93B acquire partially EndoH resistant hybrid type oligosaccharides

SMILES: CO/C1=C\C(C)=C\[C@@H](C)[C@@H](O)[C@@H](C)C/C(C)=C/C=C/[C@H](OC)[C@@H]([C@@H](C)[C@@H](O)[C@H](C)[C@@]2(O)C[C@@H](O)[C@H](C)[C@@H](C(C)C)O2)OC1=O [bafilomycin]
- effect on TLR signaling compared with the defects of 3d cells (TLR signaling): mimicked

SMILES: CC(C)Cn1cnc2c(N)nc3ccccc3c21 [imiquimod, Imiquimod]
- levels of coimmunoprecipitated TLR polypeptides after TLR activation versus unstimulated cells [1]: No significant changes
- surface level of MHC class II (BM-DCs [3]): failed to increase the MHC class II level in 3d cells
- localization of TLR7 after stimulation (TLR7): trafficking of TLR7 from the ER to endolysosomes was also observed
- TNF production (BM-DCs [4]): failed to produce TNF

From US20120142027A1, “Compositions and Methods for Modulating the Immune Response and Identifying Immunomodulators” (WHITEHEAD INSTITUTE FOR BIOMEDICAL RESEARCH, priority 2007, published 2012)
